The supplement of paper PMC11061612

What was measured:
Experiment in all cases: Bliss excess, mean over the matrix (fraction); higher = more synergy
[1] = system: CAL-148 (Breast Carcinoma)
Method in brief: (§1)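 Bliss excess equals the observed combination effect minus the expected value EA + EB − EA·EB, where EA and EB are the effects of each agent alone. Combination Emax is the second-highest inhibition within the matrix. Inhibition was scaled from CellTiter-Glo 2.0 luminescence, with 0 set by vehicle wells and 1 by blank wells, after 72 hours of two-drug dosing of cells plated in 1536-well plates.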

[2] = system: HT-1376 (Bladder Carcinoma)
Method in brief: as §1

[3] = system: HuP-T4 (Pancreatic Carcinoma)
Method in brief: as §1

[4] = system: B-CPAP (Thyroid Gland Carcinoma)
Method in brief: as §1

[5] = system: LNCaP-Clone-FGC (Prostate Carcinoma)
Method in brief: as §1

[6] = system: LB831-BLC (Bladder Carcinoma)
Method in brief: as §1

[7] = system: Hs-578-T (Breast Carcinoma)
Method in brief: as §1

[8] = system: KP-1N (Pancreatic Carcinoma)
Method in brief: as §1

[9] = system: MDA-MB-361 (Breast Carcinoma)
Method in brief: as §1

[10] = system: LS-180 (Colorectal Carcinoma)
Method in brief: as §1

KELLY (Neuroblastoma) = system: KELLY (Neuroblastoma)
Method in brief: as §1

NB10 (Neuroblastoma) = system: NB10 (Neuroblastoma)
Method in brief: as §1

[11] = system: HCC1806 (Breast Carcinoma)
Method in brief: as §1

[12] = system: OVCA420 (Ovarian Carcinoma)
Method in brief: as §1

[13] = system: KURAMOCHI (Ovarian Carcinoma)
Method in brief: as §1

[14] = system: Calu-3 (Lung Adenocarcinoma)
Method in brief: as §1

[15] = system: KYSE-520 (Esophageal Squamous Cell Carcinoma)
Method in brief: as §1

[16] = system: Daoy (Other Solid Carcinomas)
Method in brief: as §1

[17] = system: MFE-296 (Endometrial Carcinoma)
Method in brief: as §1

[18] = system: CaR-1 (Colorectal Carcinoma)
Method in brief: as §1

Structure (SMILES) | Bliss excess [1] | Bliss excess [2] | Bliss excess [3] | Bliss excess [4] | Bliss excess [5] | Bliss excess [6] | Bliss excess [7] | Bliss excess [8] | Bliss excess [9] | Bliss excess [10] | Bliss excess (KELLY (Neuroblastoma)) | Bliss excess (NB10 (Neuroblastoma)) | Bliss excess [11] | Bliss excess [12] | Bliss excess [13] | Bliss excess [14] | Bliss excess [15] | Bliss excess [16] | Bliss excess [17] | Bliss excess [18]
Cc1c2c(nn1C)CSCc1cc(n(C)n1)CSc1cc(c3ccccc3c1)OCCCc1c(C(=O)O)n(C)c3c-2c(Cl)ccc13 [AZD5991] + Cc1cc2ncnn2cc1Nc1ncc2c(n1)n(C1CCOCC1)c(=O)n2C [AZD7648] (first compound max 1 µM, 7x7, partner max 10 µM) | -0.0121 | -0.0218 | -0.0562 | -0.0155 | -0.0423 | -0.034 | -0.0058 | -0.0518 | -0.0344 | -0.0213 | -0.0368 | 0.0047 | -0.0203 | -0.0531 | -0.0228 | -0.0115 | -0.0595 | -0.0069 | -0.0101 | -0.0365
Cc1cc2ncnn2cc1Nc1ncc2c(n1)n(C1CCOCC1)c(=O)n2C [AZD7648] + O=C(c1cc(Cc2n[nH]c(=O)c3ccccc23)ccc1F)N1CCN(C(=O)C2CC2)CC1 [Olaparib] (first compound max 10 µM, 7x7, partner max 10 µM) | -0.0545 | -0.0549 | -0.0432 | -0.0034 | -0.0049 | 0.0067 | -0.0325 | 0.0211 | -0.0204 | -0.0896 | -0.0241 | -0.0102 | -0.0343 | -0.035 | -0.0418 | -0.0351 | -0.0138 | -0.0102 | -0.0255 | -0.0399
CCN(CCO)CCCOc1ccc2c(Nc3cc(CC(=O)Nc4cccc(F)c4)[nH]n3)ncnc2c1 [AZD2811] + O=C(c1cc(Cc2n[nH]c(=O)c3ccccc23)ccc1F)N1CCN(C(=O)C2CC2)CC1 [Olaparib] (first compound max 1 µM, 7x7, partner max 10 µM) | 0.0319 | -0.0499 | -0.0055 | 0.0104 | -0.0009 | 0.0083 | -0.0192 | -0.0175 | -0.0133 | 0.0636 | -0.0359 | -0.0445 | 0.0298 | 0.0008 | -0.0317 | 0.0047 | -0.0217 | 0.0678 | -0.011 | 0.0213
COc1cccc(OCCCN)c1-c1cc(Nc2cnc(C#N)cn2)n[nH]1 [Prexasertib] + O=C(c1cc(Cc2n[nH]c(=O)c3ccccc23)ccc1F)N1CCN(C(=O)C2CC2)CC1 [Olaparib] (first compound max 1 µM, 7x7, partner max 10 µM) | -0.0507 | -0.0976 | -0.0834 | -0.007 | -0.049 | -0.0175 | -0.0324 | 0.0018 | -0.0509 | -0.0348 | -0.0742 | -0.0272 | -0.0284 | -0.0374 | -0.0891 | -0.0558 | -0.111 | 0.0261 | -0.0516 | -0.0635
CS(=O)(=O)CCNCc1ccc(-c2ccc3ncnc(Nc4ccc(OCc5cccc(F)c5)c(Cl)c4)c3c2)o1 [Lapatinib] + C[C@@H](Oc1cc(-c2cnn(C3CCNCC3)c2)cnc1N)c1c(Cl)ccc(F)c1Cl [Crizotinib] (first compound max 10 µM, 7x7, partner max 10 µM) | -0.0105 | -0.0343 | 0.0261 | -0.0393 | -0.0575 | -0.0321 | -0.0984 | -0.0435 | 0.0278 | 0.0173 | -0.03 | -0.0771 | -0.0266 | 0.0287 | -0.0794 | 0.0052 | -0.0352 | -0.0297 | -0.0288 | -0.0084
COc1nnc2ccc(N3CCC(c4ccc(OCCN5CCN(C)C(=O)[C@H]5C)cc4)CC3)nn12 [AZD5153] + C[C@@H]1COCCN1C2=NC(=NC(=C2)C3(CC3)[S@](=N)(=O)C)C4=C5C=CNC5=NC=C4 [AZD6738] (first compound max 1 µM, 7x7, partner max 10 µM) | 0.0315 | -0.0006 | -0.028 | 0.0219 | -0.0318 | 0.0393 | -0.0231 | 0.131 | -0.0172 | -0.0165 | -0.0107 | 0.0214 | 0.0113 | -0.0057 | 0.0157 | 0.0066 | -0.0009 | -0.0356 | 0.0129 | 0.0411
Cn1cnc2c(F)c(Nc3ccc(Br)cc3Cl)c(C(=O)NOCCO)cc21 [Selumetinib] + CC(C)n1c(=O)n(C)c2cnc3cc(F)c(-c4ccc(OCCCN5CCCCC5)nc4)cc3c21 [AZD1390] (first compound max 10 µM, 7x7, partner max 0.3 µM) | -0.0421 | -0.0416 | -0.0086 | -0.0222 | -0.0381 | -0.0237 | -0.0426 | -0.0532 | -0.044 | -0.0519 | -0.0177 | -0.0323 | -0.0029 | 0.0018 | -0.055 | -0.023 | -0.0115 | -0.021 | -0.0529 | -0.041
COc1cc2c(cc1OCCCCCOc1cc3c(cc1OC)C(=O)N1C=C(C)C[C@H]1C=N3)N=C[C@@H]1CC(C)=CN1C2=O [SG3199] + O=C(c1cc(Cc2n[nH]c(=O)c3ccccc23)ccc1F)N1CCN(C(=O)C2CC2)CC1 [Olaparib] (first compound max 0.001 µM, 7x7, partner max 10 µM) | -0.0294 | -0.0503 | -0.0256 | 0.0434 | 0.0189 | -0.0486 | -0.0422 | 0.0163 | -0.035 | -0.0525 | 0.0142 | -0.0067 | -0.0132 | -0.0268 | -0.0693 | -0.0266 | -0.0137 | -0.0171 | -0.0639 | -0.0429
C[C@@H]1COCCN1c1cc(C2([S@](C)(=N)=O)CC2)nc(-c2ccnc3[nH]ccc23)n1 [AZD6738] + O=C(c1cc(Cc2n[nH]c(=O)c3ccccc23)ccc1F)N1CCN(C(=O)C2CC2)CC1 [Olaparib] (first compound max 10 µM, 7x7, partner max 10 µM) | 0.0123 | -0.0687 | -0.0037 | 0.0364 | -0.0297 | 0.0336 | -0.0002 | 0.0379 | -0.0376 | 0.0208 | 0.0227 | 0.0017 | 0.0103 | 0.0117 | -0.0208 | 0.0139 | -0.0402 | 0.0116 | 0.029 | -0.0391
CN(CCO)CC[C@H](CSc1ccccc1)Nc1ccc(S(=O)(=O)NC(=O)c2ccc(N3CCC([C@@H](O)c4ccccc4-c4ccc(Cl)cc4)CC3)cc2)cc1S(=O)(=O)C(F)(F)F [AZD4320] + C[C@@H](Nc1cc(F)cc(F)c1)c1cc(C(=O)N(C)C)cc2c(=O)cc(N3CCOCC3)oc12 [AZD8186] (first compound max 1 µM, 7x7, partner max 3 µM) | -0.0054 | -0.0224 | 0.0664 | 0.0064 | -0.0005 | 0.0441 | -0.0314 | 0.0059 | 0.0094 | -0.0535 | 0.029 | -0.0357 | 0.0033 | 0.002 | 0.0147 | 0.002 | -0.0712 | -0.0261 | 0.0075 | -0.0193
CN(CCO)CC[C@H](CSc1ccccc1)Nc1ccc(S(=O)(=O)NC(=O)c2ccc(N3CCC([C@@H](O)c4ccccc4-c4ccc(Cl)cc4)CC3)cc2)cc1S(=O)(=O)C(F)(F)F [AZD4320] + C=CCn1c(=O)c2cnc(Nc3ccc(N4CCN(C)CC4)cc3)nc2n1-c1cccc(C(C)(C)O)n1 [AZD1775] (first compound max 1 µM, partner max 1 µM) | -0.0033 | -0.0588 | -0.0368 | 0.0808 | -0.0222 | 0.0317 | 0.022 | -0.0325 | -0.034 | 0.0046 | 0.0505 | 0.0304 | 0.0043 | -0.0291 | 0.0419 | 0.014 | -0.0172 | -0.0261 | -0.0075 | -0.0375
COc1nnc2ccc(N3CCC(c4ccc(OCCN5CCN(C)C(=O)[C@H]5C)cc4)CC3)nn12 [AZD5153] + Cn1cnc2c(F)c(Nc3ccc(Br)cc3Cl)c(C(=O)NOCCO)cc21 [Selumetinib] (first compound max 1 µM, 7x7, partner max 10 µM) | 0.0129 | 0.0081 | 0.0621 | -0.0435 | -0.0583 | -0.0446 | -0.0344 | -0.0417 | 0.0073 | -0.0284 | 0.13 | -0.0687 | -0.0233 | 0.0303 | -0.0242 | 0.0229 | 0.0018 | -0.0253 | -0.0519 | 0.0208
